This is an account of results in patent US11739098B2 (BRISTOL-MYERS SQUIBB COMPANY, priority 2017, dated 2023).

Format in all cases: cell-based
One assay addresses T1, human TLR8 (Homo sapiens, UniProt Q9NR97).
T1 construct: host or cells: HEK-Blue cells (HEK293-derived reporter line)
T1 sequence (Q9NR97 27-1041): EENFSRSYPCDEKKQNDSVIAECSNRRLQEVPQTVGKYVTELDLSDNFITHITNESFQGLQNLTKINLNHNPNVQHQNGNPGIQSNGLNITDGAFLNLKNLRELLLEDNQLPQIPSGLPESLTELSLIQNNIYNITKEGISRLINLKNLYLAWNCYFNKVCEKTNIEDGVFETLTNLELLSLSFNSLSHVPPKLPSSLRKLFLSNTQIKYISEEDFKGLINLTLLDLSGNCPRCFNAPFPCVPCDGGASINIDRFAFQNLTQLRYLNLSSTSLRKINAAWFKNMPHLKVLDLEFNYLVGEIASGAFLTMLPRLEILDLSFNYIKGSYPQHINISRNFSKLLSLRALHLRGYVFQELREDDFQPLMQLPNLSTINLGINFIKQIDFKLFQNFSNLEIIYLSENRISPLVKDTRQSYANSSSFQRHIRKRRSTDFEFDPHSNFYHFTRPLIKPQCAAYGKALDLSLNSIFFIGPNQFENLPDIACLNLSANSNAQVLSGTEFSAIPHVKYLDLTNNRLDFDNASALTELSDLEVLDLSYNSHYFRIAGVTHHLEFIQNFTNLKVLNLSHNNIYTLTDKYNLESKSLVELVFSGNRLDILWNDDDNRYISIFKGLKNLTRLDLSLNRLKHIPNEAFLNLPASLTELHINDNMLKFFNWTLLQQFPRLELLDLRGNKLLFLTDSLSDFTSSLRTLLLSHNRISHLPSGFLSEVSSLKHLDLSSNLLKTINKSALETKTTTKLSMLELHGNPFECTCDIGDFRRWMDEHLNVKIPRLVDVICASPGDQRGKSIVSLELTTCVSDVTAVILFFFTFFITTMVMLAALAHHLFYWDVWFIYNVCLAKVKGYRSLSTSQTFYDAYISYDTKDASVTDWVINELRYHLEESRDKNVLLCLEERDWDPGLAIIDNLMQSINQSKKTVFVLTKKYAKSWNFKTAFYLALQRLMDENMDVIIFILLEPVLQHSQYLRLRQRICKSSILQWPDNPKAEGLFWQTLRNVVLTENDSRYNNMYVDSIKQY
The assay is described as follows: TLR8 inhibition reporter assay (HEK-Blue cells, SEAP reporter, R848 stimulation). Particulars: HEK-Blue cells overexpressing human TLR8, SEAP reporter, R848 15.9 μM. The method, boiled down:
(§1)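 Cells seeded per well (15000 TLR7, 20,000 TLR8, 25,000 TLR9); compound added over 0.05 nM–50 μM for 30 min at room temperature; agonist added (TLR7 gardiquimod 7.5 μM, TLR8 R848 15.9 μM, TLR9 ODN2006 5 nM); 22 h at 37 °C; SEAP measured; percent inhibition calculated.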

In a further assay the target is T2, human TLR7 (Homo sapiens, UniProt Q9NYK1).
T2 construct: host or cells: HEK-Blue cells (HEK293-derived reporter line)
T2 sequence (Q9NYK1 27-1049): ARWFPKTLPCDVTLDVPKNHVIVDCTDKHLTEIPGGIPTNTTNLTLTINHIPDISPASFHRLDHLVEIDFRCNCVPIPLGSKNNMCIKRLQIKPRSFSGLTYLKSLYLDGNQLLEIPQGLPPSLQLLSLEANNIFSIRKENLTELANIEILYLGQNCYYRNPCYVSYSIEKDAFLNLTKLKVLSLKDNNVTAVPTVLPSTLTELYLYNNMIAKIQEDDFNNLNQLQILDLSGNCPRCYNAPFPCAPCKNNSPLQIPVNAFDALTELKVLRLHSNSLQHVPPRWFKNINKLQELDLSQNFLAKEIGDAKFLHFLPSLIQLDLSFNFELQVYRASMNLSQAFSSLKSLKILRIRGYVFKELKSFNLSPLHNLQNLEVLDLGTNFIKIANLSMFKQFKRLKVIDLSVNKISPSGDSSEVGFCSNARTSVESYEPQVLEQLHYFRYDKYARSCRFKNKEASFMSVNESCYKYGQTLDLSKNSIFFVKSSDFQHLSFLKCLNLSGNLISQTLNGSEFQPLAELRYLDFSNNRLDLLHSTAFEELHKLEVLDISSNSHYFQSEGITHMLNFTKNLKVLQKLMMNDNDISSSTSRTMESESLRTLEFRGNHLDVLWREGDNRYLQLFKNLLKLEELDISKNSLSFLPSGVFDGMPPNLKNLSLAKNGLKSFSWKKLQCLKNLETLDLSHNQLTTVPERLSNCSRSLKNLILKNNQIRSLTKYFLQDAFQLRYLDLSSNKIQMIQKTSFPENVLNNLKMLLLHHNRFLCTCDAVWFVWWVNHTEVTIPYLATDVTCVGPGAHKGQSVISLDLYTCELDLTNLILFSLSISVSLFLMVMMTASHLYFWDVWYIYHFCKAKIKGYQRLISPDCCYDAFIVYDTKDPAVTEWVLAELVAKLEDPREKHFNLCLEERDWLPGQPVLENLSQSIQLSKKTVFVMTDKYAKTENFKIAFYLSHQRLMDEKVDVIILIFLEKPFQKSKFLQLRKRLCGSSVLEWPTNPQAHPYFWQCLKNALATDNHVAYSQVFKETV
The assay is described as follows: TLR7 inhibition reporter assay (HEK-Blue cells, SEAP reporter, gardiquimod stimulation). Particulars: HEK-Blue cells overexpressing human TLR7, SEAP reporter, gardiquimod 7.5 μM. The method, boiled down:
as §1

A further assay deals with T3, human TLR9 (Homo sapiens, UniProt Q9NR96).
T3 construct: host or cells: HEK-Blue cells (HEK293-derived reporter line)
T3 sequence (Q9NR96 26-1032): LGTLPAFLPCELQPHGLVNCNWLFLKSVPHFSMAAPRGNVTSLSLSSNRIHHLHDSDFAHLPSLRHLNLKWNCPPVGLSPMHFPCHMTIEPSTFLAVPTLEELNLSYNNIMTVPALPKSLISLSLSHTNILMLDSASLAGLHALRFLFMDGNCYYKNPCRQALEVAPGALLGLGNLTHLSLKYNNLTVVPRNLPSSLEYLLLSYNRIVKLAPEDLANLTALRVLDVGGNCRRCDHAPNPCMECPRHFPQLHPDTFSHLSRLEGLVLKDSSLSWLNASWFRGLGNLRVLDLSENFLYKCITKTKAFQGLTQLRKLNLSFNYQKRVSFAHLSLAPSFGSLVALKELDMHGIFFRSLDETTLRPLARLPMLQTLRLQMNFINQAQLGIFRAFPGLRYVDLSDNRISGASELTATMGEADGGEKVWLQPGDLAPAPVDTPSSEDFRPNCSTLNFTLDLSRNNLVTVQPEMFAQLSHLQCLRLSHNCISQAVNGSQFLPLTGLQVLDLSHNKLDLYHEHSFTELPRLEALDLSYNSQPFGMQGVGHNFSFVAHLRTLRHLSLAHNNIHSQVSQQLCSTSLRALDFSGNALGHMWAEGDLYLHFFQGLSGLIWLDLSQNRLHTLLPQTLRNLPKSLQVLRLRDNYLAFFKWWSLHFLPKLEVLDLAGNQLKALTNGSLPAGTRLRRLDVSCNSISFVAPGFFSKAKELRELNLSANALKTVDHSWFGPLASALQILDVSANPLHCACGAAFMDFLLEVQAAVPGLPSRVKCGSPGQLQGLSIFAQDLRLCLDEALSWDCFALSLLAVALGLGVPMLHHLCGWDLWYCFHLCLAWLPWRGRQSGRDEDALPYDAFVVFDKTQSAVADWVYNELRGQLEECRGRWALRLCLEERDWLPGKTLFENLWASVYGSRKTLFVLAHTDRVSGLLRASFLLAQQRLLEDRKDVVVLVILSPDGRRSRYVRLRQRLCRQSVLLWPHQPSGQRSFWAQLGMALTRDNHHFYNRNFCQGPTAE
The assay is described as follows: TLR9 inhibition reporter assay (HEK-Blue cells, SEAP reporter, ODN2006 stimulation). Conditions: HEK-Blue cells overexpressing human TLR9, SEAP reporter, ODN2006 5 nM. The method, boiled down:
as §1

In the case of `CC(C)c1c(-c2ccn3nccc3n2)[nH]c2ccc(C3CCNCC3)cc12` [Example 193, 5-(3-isopropyl-5-(piperidin-4-yl)-1H-indol-2-yl)pyrazolo[1,5-a]pyrimidine], the IC50 on human TLR8 lay in the range of 0.1 to 1 µM; on human TLR7, 0.1 to 1 µM; against human TLR9, 1 to 50 µM.
For the molecule `CCc1c(-c2ccnc3[nH]ncc23)[nH]c2ccc(C3CCNCC3O)cc12` (stereo not drawn) [Example 175, 4-(3-ethyl-2-(1H-pyrazolo[3,4-b]pyridin-4-yl)-1H-indol-5-yl)piperidin-3-ol], the figures for the IC50 against human TLR8, on human TLR7 and at human TLR9 were 0.1 to 1 µM, 0.1 to 1 µM and 1 to 50 µM, respectively.
Regarding `Cc1cc(-c2[nH]c3ccc(C4CCN(C5COC5)CC4)cc3c2C(C)C)c(C)n2nnnc12` [Example 740, 6-(3-isopropyl-5-(1-(oxetan-3-yl)piperidin-4-yl)-1H-indol-2-yl)-5,8-dimethyltetrazolo[1,5-a]pyridine], the values for the IC50 at human TLR8, on human TLR7 and on human TLR9 were below 0.1 µM, 0.1 to 1 µM and 1 to 50 µM, respectively.
Take `Cc1cc(-c2[nH]c3ccc(C4CCNCC4)cc3c2C(C)C)c2[nH]c(C)cc2n1` [Example 40, 7-(3-isopropyl-5-(piperidin-4-yl)-1H-indol-2-yl)-2,5-dimethyl-1H-pyrrolo[3,2-b]pyridine]: the IC50 at human TLR8 was in the range of 1 to 50 µM; against human TLR7 it was 1 to 50 µM; at human TLR9, 0.1 to 1 µM.
For the molecule `CC(C)c1c(-c2ccnc3c2ncn3C)[nH]c2ccc(C3CCNCC3)cc12` [Example 44, 7-(3-isopropyl-5-(piperidin-4-yl)-1H-indol-2-yl)-3-methyl-3H-imidazo[4,5-b]pyridine], the IC50 on human TLR8, at human TLR7 and against human TLR9 was 1 to 50 µM throughout.
For the molecule `CCc1c(-c2cccc3[nH]ncc23)[nH]c2ccc(C3CCN(CC(=O)NC)CC3)cc12` [Example 388, 2-(4-(3-ethyl-2-(1H-indazol-4-yl)-1H-indol-5-yl)piperidin-1-yl)-N-methylacetamide], the IC50 at human TLR8 was 1 to 50 µM; on human TLR7, 1 to 50 µM; against human TLR9, above 50 µM.
For the molecule `CC(C)c1c(-c2ccn3cnnc3c2)[nH]c2ccc(C3CCNCC3)cc12` [Example 83, 7-(3-isopropyl-5-(piperidin-4-yl)-1H-indol-2-yl)-[1,2,4]triazolo[4,3-a]pyridine], the IC50 was 0.1 to 1 µM on human TLR8, below 0.1 µM at human TLR7 and 0.1 to 1 µM at human TLR9.
Take `Cc1cc(-c2[nH]c3ccc(C4CCNCC4)cc3c2C(C)C)cc2ocnc12` [Example 234, 6-(3-isopropyl-5-(piperidin-4-yl)-1H-indol-2-yl)-4-methylbenzo[d]oxazole]: the IC50 is below 0.1 µM against human TLR8, below 0.1 µM at human TLR7 and 1 to 50 µM against human TLR9.
In the case of `CCc1c(-c2cnc3cn[nH]c3c2)[nH]c2ccc(C3CCNCC3)cc12` [Example 62, 6-(3-ethyl-5-(piperidin-4-yl)-1H-indol-2-yl)-1H-pyrazolo[4,3-b]pyridine], the IC50 against human TLR8, against human TLR7 and against human TLR9 was 0.1 to 1 µM throughout.
`Cc1cc(-c2[nH]c3ccc(C4CCN(CC#N)CC4)cc3c2C(C)C)cn2ccnc12` [Example 951, 2-(4-(3-isopropyl-2-(8-methylimidazo[1,2-a]pyridin-6-yl)-1H-indol-5-yl)piperidin-1-yl)acetonitrile]: the IC50 was below 0.1 µM on human TLR8, below 0.1 µM against human TLR7 and 0.1 to 1 µM against human TLR9.
As to `Cc1cc2nccn2cc1-c1[nH]c2ccc(C3CCNCC3)cc2c1C(C)C` [Example 110, 6-(3-isopropyl-5-(piperidin-4-yl)-1H-indol-2-yl)-7-methylimidazo[1,2-a]pyridine], the IC50 against human TLR8 was below 0.1 µM; at human TLR7, below 0.1 µM; on human TLR9 it was 0.1 to 1 µM.
For `Cc1ccc(-c2[nH]c3ccc(C4CCN(CC(C)(C)O)CC4)cc3c2C(C)C)c2ncnn12` [Example 769, 1-(4-(3-isopropyl-2-(5-methyl-[1,2,4]triazolo[1,5-a]pyridin-8-yl)-1H-indol-5-yl)piperidin-1-yl)-2-methylpropan-2-ol], the values for the IC50 against human TLR8, against human TLR7 and on human TLR9 were below 0.1 µM, below 0.1 µM and 1 to 50 µM, respectively.
With `CCc1c(-c2ccnc3[nH]cc(C)c23)[nH]c2ccc(C3CCNCC3)cc12` [Example 217, 4-(3-ethyl-5-(piperidin-4-yl)-1H-indol-2-yl)-3-methyl-1H-pyrrolo[2,3-b]pyridine], the IC50 against human TLR8, against human TLR7 and on human TLR9 was 0.1 to 1 µM each time.
Take `CC(C)c1c(-c2ccnc3[nH]ncc23)[nH]c2cc(C(F)(F)F)c(C3CCNCC3)cc12` [Example 249, 4-(3-isopropyl-5-(piperidin-4-yl)-6-(trifluoromethyl)-1H-indol-2-yl)-1H-pyrazolo[3,4-b]pyridine]: the results for the IC50 against human TLR8, against human TLR7 and against human TLR9 were 0.1 to 1 µM, below 0.1 µM and 1 to 50 µM, respectively.
